Key:
[1] = Determination of the moisture stability of polymorphic forms of sofosbuvir and amorphous sofosbuvir (humidity chamber, XRPD before and after); type: physicochemical; conditions: for XRPD analysis, sample after storage at 40° C./75% RH for 18 h / Visual aspect, sample after storage at 40° C./75% RH for 18 h: after 18 h at 40° C./75% RH in humidity chamber; for Visual aspect, sample after storage at 40° C./75% RH for 18 h: footnote: gel/gum = sample deliquesced; for Visual aspect, sample before storage at 40° C./75% RH / XRPD analysis, sample before storage at 40° C./75% RH: 30 mg sample
Method: Even more precisely, the moisture stability of the polymorphic form is defined as the amount in mg of the polymorphic form which is present after an exposure of an amount of 30 mg of the polymorphic form to a relative humidity of (75±1) % at a temperature of (40±1)° C. for an exposure time of (18±1) hours in a humidity chamber, relative to the amount of 30 mg of the polymorphic form before said exposure, as determined via X-ray powder diffraction pattern analysis at a temperature in the range of from 15 to 25° C. with Cu-Kalpha1,2 radiation having a wavelength of 0.15419 nm of the polymorphic form before the exposure and via said X-ray powder diffraction pattern analysis after the exposure.
30 mg of a given polymorphic form of sofosbuvir or of amorphous sofosbuvir prepared according to Reference Examples 1 to 4 were analyzed via XRPD as described in Reference Example 6. Then, these polymorphic forms of sofosbuvir or of amorphous sofosbuvir were exposed to an atmosphere having a relative humidity (RH) of 75% and a temperature of 40° C. for 18 hours in a humidity chamber and analyzed via XRPD as described in Reference Example 6.
XRPD patterns were obtained with an X'Pert PRO diffractometer (PANalytical, Almelo, The Netherlands) equipped with a theta/theta coupled goniometer in transmission geometry, pro-grammable XYZ stage with well plate holder, Cu-Kalpha1,2 radiation source (wavelength 0.15419 nm) with a focusing mirror, a 0.5° divergence slit, a 0.02° soller slit collimator and a 0.5° anti-scattering slit on the incident beam side, a 2 mm anti-scattering slit, a 0.02° soller slit collimator, a Ni-filter and a solid state PIXcel detector on the diffracted beam side. The diffractogram was recorded at room temperature at a tube voltage of 40 kV, tube current of 40 mA, applying a stepsize of 0.013° 2-theta with 40 sec per step in the angular range of 2° to 40° 2-theta. A typical precision of the 2-theta values is in the range of ±0.2° 2-theta. Thus, a diffraction peak that appears for example at 9.4° 2-theta can appear between 9.2 and 9.6° 2-theta on most X-ray diffractometers under standard conditions.

[2] = 40° C., relative humidity 75%; cited from earlier work

SMILES	XRPD analysis, sample after storage at 40° C./75% RH for 18 h [1]	Visual aspect, sample after storage at 40° C./75% RH for 18 h [1]	Visual aspect, sample before storage at 40° C./75% RH [1]	XRPD analysis, sample before storage at 40° C./75% RH [1]	behaviour under stress conditions (deliquescence) [2]
CC(C)OC(=O)[C@H](C)N[P@](=O)(OC[C@H]1O[C@@H](n2ccc(=O)[nH]c2=O)[C@](C)(F)[C@@H]1O)Oc1ccccc1 [Amorphous]	amorphous	gel/gum*^)	white powder	amorphous	–
CC(C)OC(=O)[C@H](C)N[P@](=O)(OC[C@H]1O[C@@H](n2ccc(=O)[nH]c2=O)[C@](C)(F)[C@@H]1O)Oc1ccccc1 [Form 1]	amorphous	gel/gum*^)	white powder	crystalline, Form 1	–
CC(C)OC(=O)[C@H](C)N[P@](=O)(OC[C@H]1O[C@@H](n2ccc(=O)[nH]c2=O)[C@](C)(F)[C@@H]1O)Oc1ccccc1 [Form 6]	crystalline, Form 6	white powder	white powder	crystalline, Form 6	–
CC(C)OC(=O)[C@H](C)N[P@](=O)(OC[C@H]1O[C@@H](n2ccc(=O)[nH]c2=O)[C@](C)(F)[C@@H]1O)Oc1ccccc1 [Form 7]	crystalline, Form 7	white powder	white powder	crystalline, Form 7	–
CC(C)OC(=O)[C@H](C)N[P@](=O)(OC[C@H]1O[C@@H](n2ccc(=O)[nH]c2=O)[C@](C)(F)[C@@H]1O)Oc1ccccc1 [sofosbuvir, (S)-isopropyl 2-(((S)-(((2R,3R,4R,5R)-5-(2,4-dioxo-3,4-dihydropyrimidin-1(2H)-yl)-4-fluoro-3-hydroxy-4-methyltetrahydrofuran-2-yl)methoxy)(phenoxy)phosphoryl)-amino)propanoate]	–	–	–	–	deliquesces after a few hours
